Tests used:
A2780 ovarian cells [1] = assay: A2780 ovarian cell proliferation assay in lipid reduced medium, with palmitate (MTT); format: cell-based; conditions: Homo sapiens, A2780, 96 h; read-out: pIC50 A2780 Ovarian Cell, With Palmitate (converted)
How it was run: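 Seeded cells were switched next day to lipid-reduced serum, exposed to compound and 25 μM palmitate complexed with fatty-acid-free BSA, and incubated 96 h. Proliferation was then determined by MTT absorbance at 544 nm, with a best-fit curve of signal against concentration.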

[2] = molecular target: T1, hFASN enzyme (full length) (Homo sapiens, UniProt P49327); assay: Fatty Acid Synthase (FASN) inhibition scintillation proximity assay; format: biochemical; conditions: for inhibition at 10 µM: read-out: Human FASN % inhibition @ 10 μM, 10 μM test compound; for IC50: read-out: Human FASN pIC50 (converted)
T1 construct: 10 μL hFASN enzyme (full length, 300 ng, purified in house); made in house
T1 sequence (P49327 whole entry): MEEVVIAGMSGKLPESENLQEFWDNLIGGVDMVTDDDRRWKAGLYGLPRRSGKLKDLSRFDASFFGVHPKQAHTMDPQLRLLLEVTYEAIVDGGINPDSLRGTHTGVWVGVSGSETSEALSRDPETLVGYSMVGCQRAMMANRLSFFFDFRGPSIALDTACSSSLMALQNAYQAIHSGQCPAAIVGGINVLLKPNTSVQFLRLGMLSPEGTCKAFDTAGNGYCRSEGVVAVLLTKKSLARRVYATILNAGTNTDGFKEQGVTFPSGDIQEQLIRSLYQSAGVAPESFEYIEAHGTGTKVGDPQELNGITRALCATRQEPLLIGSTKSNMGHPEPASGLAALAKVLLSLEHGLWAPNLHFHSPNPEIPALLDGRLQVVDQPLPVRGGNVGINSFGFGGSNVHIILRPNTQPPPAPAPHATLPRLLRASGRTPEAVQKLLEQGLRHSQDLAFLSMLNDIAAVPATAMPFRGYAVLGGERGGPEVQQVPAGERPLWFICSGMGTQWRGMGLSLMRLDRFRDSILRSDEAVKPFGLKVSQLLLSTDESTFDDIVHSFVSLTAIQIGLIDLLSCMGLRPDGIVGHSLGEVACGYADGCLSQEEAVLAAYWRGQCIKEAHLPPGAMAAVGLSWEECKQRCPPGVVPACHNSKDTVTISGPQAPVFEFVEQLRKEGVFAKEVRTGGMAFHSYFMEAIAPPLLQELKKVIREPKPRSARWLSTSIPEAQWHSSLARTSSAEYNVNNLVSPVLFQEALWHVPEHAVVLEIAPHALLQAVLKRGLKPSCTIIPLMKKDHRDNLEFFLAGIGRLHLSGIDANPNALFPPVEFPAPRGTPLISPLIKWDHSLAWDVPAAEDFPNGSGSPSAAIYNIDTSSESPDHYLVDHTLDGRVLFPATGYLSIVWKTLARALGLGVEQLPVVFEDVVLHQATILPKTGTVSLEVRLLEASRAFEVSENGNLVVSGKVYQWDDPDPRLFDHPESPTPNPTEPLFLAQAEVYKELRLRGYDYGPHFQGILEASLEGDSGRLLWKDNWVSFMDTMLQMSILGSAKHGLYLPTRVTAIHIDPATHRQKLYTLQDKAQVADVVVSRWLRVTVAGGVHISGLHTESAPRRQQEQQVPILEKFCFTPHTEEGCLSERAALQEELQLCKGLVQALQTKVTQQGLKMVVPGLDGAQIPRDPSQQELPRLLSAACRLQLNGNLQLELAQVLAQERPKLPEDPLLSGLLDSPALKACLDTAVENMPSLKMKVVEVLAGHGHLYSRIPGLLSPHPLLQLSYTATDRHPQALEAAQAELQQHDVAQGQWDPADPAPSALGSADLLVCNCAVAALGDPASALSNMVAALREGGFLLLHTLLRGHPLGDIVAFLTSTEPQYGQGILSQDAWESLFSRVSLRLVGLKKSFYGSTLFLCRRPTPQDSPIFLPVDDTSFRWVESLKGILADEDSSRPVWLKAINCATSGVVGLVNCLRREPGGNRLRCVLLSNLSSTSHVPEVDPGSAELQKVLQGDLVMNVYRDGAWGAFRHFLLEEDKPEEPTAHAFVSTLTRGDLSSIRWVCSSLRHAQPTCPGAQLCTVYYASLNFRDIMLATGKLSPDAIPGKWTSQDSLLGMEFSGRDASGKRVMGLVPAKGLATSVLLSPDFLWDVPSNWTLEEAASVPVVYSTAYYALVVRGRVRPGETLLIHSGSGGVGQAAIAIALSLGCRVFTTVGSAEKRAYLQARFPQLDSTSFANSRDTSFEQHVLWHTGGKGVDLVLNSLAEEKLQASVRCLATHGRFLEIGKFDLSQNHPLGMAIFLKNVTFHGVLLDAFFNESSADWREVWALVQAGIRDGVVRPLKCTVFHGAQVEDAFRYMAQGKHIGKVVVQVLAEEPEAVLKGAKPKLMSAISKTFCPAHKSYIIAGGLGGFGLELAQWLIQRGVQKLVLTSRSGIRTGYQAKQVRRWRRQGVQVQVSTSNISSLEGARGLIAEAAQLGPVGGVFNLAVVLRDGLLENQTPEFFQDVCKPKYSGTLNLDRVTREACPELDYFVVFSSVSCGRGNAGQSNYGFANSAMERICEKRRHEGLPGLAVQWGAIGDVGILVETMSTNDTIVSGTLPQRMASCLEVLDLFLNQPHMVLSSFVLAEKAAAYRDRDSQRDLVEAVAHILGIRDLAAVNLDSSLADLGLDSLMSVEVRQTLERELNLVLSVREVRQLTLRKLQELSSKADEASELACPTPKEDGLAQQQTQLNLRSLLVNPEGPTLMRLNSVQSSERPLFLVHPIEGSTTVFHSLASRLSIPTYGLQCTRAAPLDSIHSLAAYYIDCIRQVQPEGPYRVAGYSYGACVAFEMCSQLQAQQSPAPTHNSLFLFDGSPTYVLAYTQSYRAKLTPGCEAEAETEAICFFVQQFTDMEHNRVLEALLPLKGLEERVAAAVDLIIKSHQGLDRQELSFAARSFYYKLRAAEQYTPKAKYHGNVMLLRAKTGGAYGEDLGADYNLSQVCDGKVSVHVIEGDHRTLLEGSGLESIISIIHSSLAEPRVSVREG
How it was run: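 Purified full-length hFASN (300 ng) converts ^3H-acetyl-CoA plus malonyl-CoA to ^3H-palmitate in 100 mM KH2PO4 pH 7.5, 1 mM DTT; compounds tested at 0.01–30 μM. Product captured on streptavidin imaging beads and read by LEADseeker at 610 nm after ≥24 h; 4-parameter logistic fit versus controls.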

[3] = molecular target: Fatty Acid Synthase Keto-reductase Domain (FASN KR) (Homo sapiens, UniProt P49327); assay: Fatty Acid Synthase keto-reductase domain (FASN KR) inhibition, NADPH oxidation at 340 nm
Fatty Acid Synthase Keto-reductase Domain (FASN KR), sequence (P49327 whole entry, the tested form may be a part): as the sequence (P49327 whole entry) above
Procedure: After 20 minutes incubation at room temperature the plate was measured again (T2).
The decrease in absorbance was calculated as (Absorbance before incubation T1)−(Absorbance following incubation T2).
A plot of Controlmin versus test compound concentration was fitted to a 4-parameter logistic curve using a non-linear least squares regression method.

[4] = test system: PC-3M-Luc-C6 prostate cells; assay: In vitro PC-3M-Luc-C6 prostate cell proliferation assay in lipid reduced medium; format: cell-based; conditions: 96 h, read-out: pIC50 PC-3M-Luc-C6 prostate cell (converted)
A2780 ovarian cells [5] = assay: A2780 ovarian cell proliferation assay in lipid reduced medium, without palmitate (MTT); format: cell-based; conditions: Homo sapiens, A2780, 96 h; read-out: pIC50 A2780 Ovarian Cell, Without Palmitate (converted)
[6] = test system: LNCaP-Vancouver prostate cells; assay: In vitro LNCaP Vancouver prostate cell proliferation assay in lipid reduced medium; format: cell-based; conditions: read-out: pIC50 LNCaP_Vancouver prostate cell (converted)

| Structure (SMILES) | IC50 (A2780 ovarian cells [1]) [nM] | inhibition at 10 µM [2] [%] | IC50 [2] [nM] | IC50 [3] [nM] | IC50 [4] [nM] | IC50 (A2780 ovarian cells [5]) [nM] | IC50 [6] [nM] |
| --- | --- | --- | --- | --- | --- | --- | --- |
| Cc1oc2ccc(-c3ccc(C4=NC5(CC5)C(=O)N4C[C@@H]4CCN(C(=O)C5CC5)C4)cc3F)cc2c1C [compound 399, 6-{[(3R)-1-(Cyclopropylcarbonyl)pyrrolidin-3-yl]methyl}-5-[4-(2,3-dimethyl-1-benzofuran-5-yl)-3-fluorophenyl]-4,6-diazaspiro[2.4]hept-4-en-7-one] | > 6170 | 99 | 363 | 1320 | > 3020 | > 6170 | > 3020 |
| CC(O)C(=O)N1CC[C@@H](CN2C(=O)C3(CCOC3)N=C2c2ccc(-c3ccc4cccnc4c3)cc2)C1 (stereo partly drawn) [compound 681, 3-{[(3R)-1-(2-Hydroxypropanoyl)pyrrolidin-3-yl]methyl}-2-(4-quinolin-7-ylphenyl)-7-oxa-1,3-diazaspiro[4.4]non-1-en-4-one] | > 10000 | 91 | 295 | 1380 | 1380 | 794 | 4900 |
| Cc1nc2ccc(-c3ccc(C4=NC5(CC5)C(=O)N4CC4CN(C(=O)C5CC5)C4)c(F)c3)cc2s1 [compound 558, 6-{[1-(Cyclopropylcarbonyl)azetidin-3-yl]methyl}-5-[2-fluoro-4-(2-methyl-1,3-benzothiazol-6-yl)phenyl]-4,6-diazaspiro[2.4]hept-4-en-7-one] | 6310 | 96 | 186 | 708 | 724 | ~562 | 2510 |
| O=C(C1CC1)N1CC[C@@H](CN2C(=O)C3(CC3)N=C2c2ccc(-c3ccc4occc4c3)cn2)C1 [compound 390, 5-[5-(1-Benzofuran-5-yl)pyridin-2-yl]-6-{[(3R)-1-(cyclopropylcarbonyl)pyrrolidin-3-yl]methyl}-4,6-diazaspiro[2.4]hept-4-en-7-one] | > 10000 | 99 | 324 | 676 | 1480 | ~2630 | 2750 |
| Cn1nc(CO)c2cc(-c3ccc(C4=NC5(CC5)C(=O)N4CC4CN(C(=O)C5CC5)C4)c(F)c3)ccc21 [compound 609, 6-{[1-(Cyclopropylcarbonyl)azetidin-3-yl]methyl}-5-{2-fluoro-4-[3-(hydroxymethyl)-1-methyl-1H-indazol-5-yl]phenyl}-4,6-diazaspiro[2.4]hept-4-en-7-one] | > 10000 | 99 | 186 | 676 | 661 | ~263 | 4790 |
| Cc1nn(C)c2ccc(-c3ccc(C4=NC5(CC5)C(=O)N4C[C@@H]4CCN(C(=O)C5CC5)C4)cc3)cc12 [compound 218, (R)-6-((1-(cyclopropanecarbonyl)pyrrolidin-3-yl)methyl)-5-(4-(1,3-dimethyl-1H-indazol-5-yl)phenyl)-4,6-diazaspiro[2.4]hept-4-en-7-one] | > 10000 | 95 | 72.4 | 102 | 72.4 | 85.1 | 417 |
| Cn1ncc2cc(-c3ccc(C4=NC5(CC5)C(=O)N4CC4CN(C(=O)C5(F)CC5)C4)c(F)c3)ccc21 [compound 637, 6-({1-[(1-Fluorocyclopropyl)carbonyl]azetidin-3-yl}methyl)-5-[2-fluoro-4-(1-methyl-1H-indazol-5-yl)phenyl]-4,6-diazaspiro[2.4]hept-4-en-7-one] | > 10000 | 99 | 120 | 871 | ~234 | 85.1 | 1820 |
| Cc1cc(-c2ccc3ccc(C(N)=O)nc3c2)ccc1C1=NC2(CC2)C(=O)N1CC1CN(C(=O)C2(C)CC2)C1 [compound 579, 7-{3-Methyl-4-[6-({1-[(1-methylcyclopropyl)carbonyl]azetidin-3-yl}methyl)-7-oxo-4,6-diazaspiro[2.4]hept-4-en-5-yl]phenyl}quinoline-2-carboxamide] | > 10000 | 83 | 1100 | 4570 | 2000 | 1100 | 4570 |
| Cc1cc(-c2ccc3c(cnn3C)c2)ccc1C1=NC2(CC2)C(=O)N1CC1CN(C(=O)C(C)(C)O)C1 [compound 495, 6-{[1-(2-Hydroxy-2-methylpropanoyl)azetidin-3-yl]methyl}-5-[2-methyl-4-(1-methyl-1H-indazol-5-yl)phenyl]-4,6-diazaspiro[2.4]hept-4-en-7-one] | > 10000 | 95 | 257 | 724 | ~589 | 275 | ~3240 |
| Cc1cc(C2=NC3(CC3)C(=O)N2C[C@@H]2CCN(C(=O)C3CC3)C2)ccc1-c1ccc2[nH]ccc2c1 [compound 238, (R)-5-(4-(1H-indol-5-yl)-3-methylphenyl)-6-((1-(cyclopropanecarbonyl)pyrrolidin-3-yl)methyl)-4,6-diazaspiro[2.4]hept-4-en-7-one] | > 10000 | 98 | 43.7 | 105 | 70.8 | 42.7 | 245 |

These reach a lower IC50 [3]. Values come first.

| IC50 (A2780 ovarian cells [1]) [nM] | inhibition at 10 µM [2] [%] | IC50 [2] [nM] | IC50 [3] [nM] | IC50 [4] [nM] | IC50 (A2780 ovarian cells [5]) [nM] | IC50 [6] [nM] | Structure (SMILES) |
| --- | --- | --- | --- | --- | --- | --- | --- |
| ~2450 | 103 | 27.5 | ~51.3 | 9.33 | 6.17 | 46.8 | N#Cc1ccc2cc(-c3ccc(C4=NC5(CC5)C(=O)N4CC4CN(C(=O)C5CC5)C4)c(F)c3)ccc2c1 [compound 222, 6-(4-(6-((1-(cyclopropanecarbonyl)azetidin-3-yl)methyl)-7-oxo-4,6-diazaspiro[2.4]hept-4-en-5-yl)-3-fluorophenyl)-2-naphthanitrile] |
| > 10000 | 100 | 29.5 | 50.1 | 224 | 437 | 1380 | N#Cc1cc2cc(-c3ccc(C4=NC5(CC5)C(=O)N4C[C@@H]4CCN(C(=O)C5CC5)C4)c(F)c3)ccc2o1 [compound 254, (R)-5-(4-(6-((1-(cyclopropanecarbonyl)pyrrolidin-3-yl)methyl)-7-oxo-4,6-diazspiro[2.4]hept-4-en-5-yl)-3-fluorophenyl)benzofuran-2-carbonitrile] |
| 4370 | 99 | 30.2 | 47.9 | 50.1 | 17.8 | 182 | Cc1cc(-c2ccc3cc(Cl)ccc3c2)ccc1C1=NC2(CC2)C(=O)N1CC1CN(C(=O)C2(C)CC2)C1 [compound 321, 5-(4-(6-chloronaphthalen-2-yl)-2-methylphenyl)-6-((1-(1-methylcyclopropanecarbonyl)azetidin-3-yl)methyl)-4,6-diazaspiro[2.4]hept-4-en-7-one] |
| > 10000 | 101 | 17 | 38 | 4.79 | ~5.01 | 15.5 | O=C(C1CC1)N1CC[C@@H](CN2C(=O)C3(CC3)N=C2c2ccc(-c3ccc4[nH]ccc4c3)cc2F)C1 [compound 246, (R)-6-((1-(cyclopropanecarbonyl)pyrrolidin-3-yl)methyl)-5-(2-fluoro-4-(1H-indol-5-yl)phenyl)-4,6-diazaspiro[2.4]hept-4-en-7-one] |
| > 10000 | 106 | 25.7 | 30.9 | 18.2 | ~23.4 | 38 | Cc1cc(-c2ccc3[nH]ccc3c2)ccc1C1=NC2(CC2)C(=O)N1C[C@@H]1CCN(C(=O)C2CC2)C1 [compound 284, (R)-5-(4-(1H-indol-5-yl)-2-methylphenyl)-6-((1-(cyclopropanecarbonyl)pyrrolidin-3-yl)methyl)-4,6-diazaspiro[2.4]hept-4-en-7-one] |
| > 10000 | 104 | 25.1 | 28.8 | 10.5 | 13.5 | 87.1 | O=C(C1CC1)N1CC[C@@H](CN2C(=O)C3(CCCC3)N=C2c2ccc(-c3ccc4cccnc4c3)cc2F)C1 [compound 875, (R)-3-((1-(cyclopropanecarbonyl)pyrrolidin-3-yl)methyl)-2-(2-fluoro-4-(quinolin-7-yl)phenyl)-1,3-diazaspiro[4.4]non-1-en-4-one] |
| > 10000 | 100 | 21.9 | 28.8 | ~56.2 | ~75.9 | 166 | O=C(C1CC1)N1CC[C@@H](CN2C(=O)C3(CC3)N=C2c2ccc(-c3ccc4sccc4c3)cc2F)C1 [compound 241, (R)-5-(4-(benzo[b]thiophen-5-yl)-2-fluorophenyl)-6-((1-(cyclopropanecarbonyl)pyrrolidin-3-yl)methyl)-4,6-diazaspiro[2.4]hept-4-en-7-one] |

— patent US10077261B2, “Imidazolin-5-one derivative useful as FASN inhibitors for the treatment of cancer” (Janssen Pharmaceutica NV, priority 2012, dated 2018)
